PMC6960190, “Systemic Evaluation on the Pharmacokinetics of Platinum-Based Anticancer Drugs From Animal to Cell Level: Based on Total Platinum and Intact Drugs” (Frontiers in Pharmacology, 2020)
Values joined by “and” are separate entries in the source; they are usually repeats but may differ in a detail not shown here. Equal entries are not always repeated.

How the values were obtained:
[1] = Pharmacokinetics of intact platinum-based drugs in rats (UPLC-MS/MS) in blood, plasma and ultrafiltrate plasma; details: intraperitoneal; for complete elimination time of intact drug: equal moles, plasma and ultrafiltrate plasma
Procedure: The biological samples were pretreatmented by precipitation with acetonitrile. To each 50 µl sample volume, 200 µl of acetonitrile containing IS (25 ng/ml) was added. The samples were then centrifuged for 10 min at 15,000 rpm, after which 5 µl of the supernatant was injected into the UPLC column for analysis of intact drug.
The ACQUITY UPLC I class system consisted of an autosampler, pump, column oven, and controller (waters, MA, USA). Chromatographic separation was performed on an ACQUITY UPLC BEH Amide column (Part NO:186004800, 1.7 µm, 2.1 × 50mm, Waters, MA, USA) and the pre-column is ACQUITY UPLC BEH C18 (1.7µm, Waters, MA, USA). The binary mobile phase consisted of mobile phase B: acetonitrile and mobile phase A: water containing 5 mm ammonium acetate. The injection volume was 5 µl and the column temperature was 40°C. The gradient program was as follows: 0–1 min, 95% phase B; 1–2 min, 95–70% phase B; 2–4 min,70% phase B; 4–5 min, 70–95% phase B; 5–7min, 95% phase B. The total run time is 7.0 min and the flow rate was set at 0.6 ml/min.
The UPLC system was interfaced with a Xevo TQ-XS Mass Spectrometer with MassLynx V4.2 software package (Waters, MA, USA). The mass spectrometer was operated using Turbo Spray source in positive multiple-reaction monitoring-mode (MRM) for intact drug determination. […] The optimal parameters for MS/MS conditions are as follows: capillary 2.4 kV; cone 25 V; desolvation temperature 450 °C.
The assay method was evaluated with four kinds of matrix including blood, plasma, ultrafiltrate plasma, and cell lysate. […] The precision and accuracy for three intact platinum-based drugs in blood/plasma/ultrafiltrate plasma were investigated by replicate analysis of six sets of samples at four concentration levels: 2, 5, 200, and 4,000 ng/ml. The precision and accuracy for the assay method in cell lysate were investigated at four concentration levels of 2, 5, 20, and 160 ng/ml.
(§1) Male Sprague-Dawley rats (n = 18, 200 ± 20g) were provided by Shanghai Jiesijie Experimental Animal Co., Ltd (Shanghai, China) and certificate number was scxk (hu) 2013-0006. Animals were allowed to adapt to the housing environment for 1 week prior to study. […] All animal studies were approved by the Animal Ethics Committee of China Pharmaceutical University.
(§2) Blood-sampling times were arranged as 0, 0.083, 0.5, 1, 2, 4, 8, 12, 24, 48, 72h post-dose for all three platinum-based anticancer drugs. When each time point reached, blood samples (about 800 µl) were collected from the fossa orbitalis. 150 µl of the blood was spiked into another 1.5 ml tube as the blood sample. The rest of the blood was centrifuged immediately at 8,000 rpm for 10 min and the supernatant plasma was harvested. 50 µl of the supernatant plasma was spiked into 1.5 ml for determining total platinum in plasma sample and 50 µl of the supernatant plasma was spiked into 1.5 ml tube for determining intact platinum-based drug in plasma. The remaining plasma was used to prepare ultrafiltrate plasma with Amicon® Ultra 10K Centrifugal Filter Devices, centrifuged at 14,000 g for 20 min. All the samples were stored at -80 °C until analysis.
(§3) The pharmacokinetic parameters were calculated using the software WinNonlion Version 6.4 by non-compartmental method. Statistical significance was tested by Student’s t -test. P < 0.05 was considered statistically significant, while P < 0.01 was considered highly significant.

[2] = Pharmacokinetics of total platinum in rats (ICP-MS) in blood, plasma and ultrafiltrate plasma; details: intraperitoneal, 16.7 nmol/kg, mean ± sd (n = 6)
Procedure: The biological samples were pretreatmented by adding 60-fold volume of ICP-MS diluent, which is an aqueous solution containing 2% nitric acid and 0.5% Triton. After vortex for 30 s, the samples were placed quietly for few minutes to obtain a clear supernatant for ICP-MS analysis of total platinum.
Platinum determination was performed with a NexION 2000 Inductively Coupled Plasma-Mass Spectrometer and a Syngistix™ Software-ES version 2.4 (PerkinElmer, USA). Instrumental settings were optimized in order to yield maximum sensitivity for platinum, with the scan mode Peak Hopping, Dwell time per AMU 50 ms and single MCA Channel. […] The assay method was evaluated with four kinds of matrix including blood, plasma, ultrafiltrate plasma, and cell lysate.
as §1, §2, §3

[3] = tested on: HCT-116 cells; assay: Uptake of oxaliplatin (total platinum and intact drug) in HCT-116 cells
Procedure: (§4) Human colon cancer HCT-116 and LOVO cell line was purchased from cell bank of Shanghai Institute of Biochemistry and Cell Biology (Shanghai, China). HCT-116 cells and LOVO cells were maintained as monolayer cultures respectively in McCoy’s 5a medium and F-12K medium, supplemented with 10% fetal bovine serum, 1% penicillin and streptomycin, in a water-saturated atmosphere (95% air/5% CO2) at 37°C.
(§5) For the temperature dependent study, the cell monolayers were treated with 4 ml drug-containing medium at 200 µm for 30 min incubation respectively at 4 °C and 37 °C.
(§6) Finally, all the monolayers of cells treated with drug-containing medium were washed three times with cold HBSS. Then cells were harvested by 0.25% trypsin digestion and the resulting cell suspension was centrifuged at 1,000 rpm for 5 min. For the uptake and elimination studies, pellets were then diluted in appropriate volume of water and repeatedly freeze-thawed three times to obtain drug-containing cell samples. For the subcellular distribution study, the pellets were further treated according to the manufacturer’s protocol of mitochondrial/nuclear separation kit (KeyGEN BioTECH, Nanjing, China) with differential centrifugation method to prepare the isolated cytosol, nucleus, and mitochondria samples. The cytosol, nucleus, and mitochondria were dissolved in the corresponding buffer salt from the instruction. An aliquot of 20 μl of each cellular or subcellular sample was removed for protein determination using BCA protein assay kit according to the manufacturer’s instructions (micro-well plate protocol).

[4] = tested on: LOVO cells; assay: Uptake of oxaliplatin (total platinum and intact drug) in LOVO cells
Procedure: as §4, §5, §6

[5] = tested on: HCT-116 cells; assay: Elimination of oxaliplatin in HCT-116 cells; format: in vitro ADME, Human; details: HCT-116, 200 µm oxaliplatin 30 min
Procedure: (§7) Cells were used for studying cellular pharmacokinetics of oxaliplatin.
(§8) Then the drug-containing medium was discarded and the cell monolayers were washed three times with cold HBSS. After that, fresh blank medium was added to the monolayers with incubation for different times of 5, 15, 30, 45, 60, 120 min.
(§9) To evaluate the elimination behavior of oxaliplatin in colon cancer cells, both oxaliplatin and total platinum of samples are determined by UPLC-MS/MS and ICP-MS method. The results are all normalized to cell protein.

[6] = tested on: LOVO cells; assay: Elimination of oxaliplatin in LOVO cells; format: in vitro ADME, Human; details: 200 µm oxaliplatin 30 min
Procedure: as §7, §8, §9

[7] = tested on: HCT-116 cells; assay: Subcellular distribution of oxaliplatin (total Pt by ICP-MS) in HCT-116 cells; details: HCT-116, 200 µm oxaliplatin, within 2 h
Procedure: as §4
(§10) We treated the cell monolayers in the same way as the uptake study above.
as §6, with “An aliquot of 20 μl of each cellular or subcellular sample was removed for protein determination using BCA protein assay kit according to the manufacturer’s instructions (micro-well plate protocol).” left out
(§11) All the prepared subcellular samples for cytosol, nucleus, and mitochondria are determined by ICP-MS method.

[8] = tested on: LOVO cells; assay: Subcellular distribution of oxaliplatin (total Pt by ICP-MS) in LOVO cells; details: 200 µm oxaliplatin, within 2 h
Procedure: as §4, §10
as §6, with “An aliquot of 20 μl of each cellular or subcellular sample was removed for protein determination using BCA protein assay kit according to the manufacturer’s instructions (micro-well plate protocol).” left out
as §11

[9] = intact drug in blood, 16.7 nmol/kg, mean ± sd (n = 6)
[10] = intact drug in plasma, 16.7 nmol/kg, mean ± sd (n = 6)
[11] = intact drug in ultrafiltrate plasma, 16.7 nmol/kg, mean ± sd (n = 6)
[12] = total Pt in ultrafiltrate plasma
[13] = HCT-116, 200 µm oxaliplatin, 15-120 min, normalized to cellular protein
[14] = 200 µm oxaliplatin, 15-120 min, normalized to cellular protein
[15] = ng Pt/mg protein of subcellular organelles

Compound	Cl [1, 9]	Cmax [1, 9]	T1/2 [1, 9]	Vz [1, 9]	Cl [1, 10]	Cmax [1, 10]	T1/2 [1, 10]	Vz [1, 10]	Cl [1, 11]	Cmax [1, 11]	T1/2 [1, 11]	Vz [1, 11]	complete elimination time of intact drug ([1]; intact drug in blood)	Vz ([2]; total Pt in blood)	Cl ([2]; total Pt in plasma)	Vz ([2]; total Pt in plasma)	Cl [2, 12]	Vz [2, 12]	further results
N.N.O=C([O-])C1(C(=O)[O-])CCC1.[Pt+2] [carboplatin, Carboplatin]	1.1 mL/h/kg and 1.1 ± 0.1 mL/h/kg	9.9 ± 0.45 µM	122 ± 7.8 min	0.0033 L/kg and 0.0033 ± 0.0004 L/kg	0.1 mL/h/kg	11.2 ± 0.49 µM	117 ± 7.2 min	0.0028 L/kg and 0.0028 ± 0.0003 L/kg	1.2 mL/h/kg and 1.2 ± 0.2 mL/h/kg	10.1 ± 0.75 µM	91.2 ± 29.4 min	0.0027 ± 0.0009 L/kg	12 h	0.009 L/kg	0.33 mL/h/kg	0.014 L/kg	0.67 mL/h/kg	0.016 L/kg	Tmax [1, 11]: 25.2 ± 11.4 min
O=C1[O][Pt]2([NH][C@@H]3CCCC[C@H]3[NH]2)[O]C1=O [oxaliplatin, Oxaliplatin]	49 mL/h/kg and 49 ± 6.6 mL/h/kg	0.42 ± 0.06 µM	33 ± 2.4 min	0.0408 L/kg and 0.0408 ± 0.0058 L/kg	6.9 mL/h/kg and 6.9 ± 0.6 mL/h/kg	3.9 ± 0.34 µM	10.8 ± 0 min	0.0018 L/kg and 0.0018 ± 0.0001 L/kg	7.2 mL/h/kg and 7.2 ± 1.7 mL/h/kg	3.93 ± 0.45 µM	10.8 ± 0.6 min	0.0019 ± 0.0006 L/kg	2 h	0.001 L/kg	0.1 mL/h/kg	0.004 L/kg	1.4 mL/h/kg	0.038 L/kg	cellular concentration of total platinum and intact oxaliplatin versus medium concentration ([3]; HCT-116, 20-500 µM oxaliplatin, 30 min): increased with increasing medium concentration of oxaliplatin; cellular accumulation of intact oxaliplatin over incubation time [3, 13]: increased over incubation time at the beginning of drug treatment (0–45 min), then gradually decreased (45–120 min); cellular total platinum over incubation time [3, 13]: increased within increasing incubation time; cellular accumulation of platinum or oxaliplatin versus temperature ([3]; HCT-116, 200 µm oxaliplatin, 30 min, 4 °C vs 37 °C, P < 0.001): significant higher at 37 °C than that at 4 °C; cellular concentration of total platinum and intact oxaliplatin versus medium concentration ([4]; 20-500 µM oxaliplatin, 30 min): increased with increasing medium concentration of oxaliplatin; cellular accumulation of intact oxaliplatin over incubation time [4, 14]: increased over incubation time at the beginning of drug treatment (0–45 min), then gradually decreased (45–120 min); cellular total platinum over incubation time [4, 14]: increased within increasing incubation time; cellular accumulation of platinum or oxaliplatin versus temperature ([4]; 200 µm oxaliplatin, 30 min, 4 °C vs 37 °C, P < 0.001): significant higher at 37 °C than that at 4 °C; time to complete elimination of cellular intact oxaliplatin ([5]; then blank medium): 1 h; cellular platinum after change to blank medium ([5]; then blank medium up to 2 h): just has a little decrease in 2 h; time to complete elimination of cellular intact oxaliplatin ([6]; then blank medium): 1 h; cellular platinum after change to blank medium ([6]; then blank medium up to 2 h): just has a little decrease in 2 h; subcellular accumulation of Pt in organelles over incubation time [7]: increased with the increasing incubation time; order of Pt concentration in cytosol, mitochondria and nucleus [7, 15]: the concentration of Pt in cytosol is more than that in mitochondria, followed by the concentration of Pt in nucleus; subcellular accumulation of Pt in organelles over incubation time [8]: increased with the increasing incubation time; order of Pt concentration in cytosol, mitochondria and nucleus [8, 15]: the concentration of Pt in cytosol is more than that in mitochondria, followed by the concentration of Pt in nucleus
